# According to ChEMBL document CHEMBL1144279, “Biarylcarboxybenzamide derivatives as potent vanilloid receptor (VR1) antagonistic ligands” (Bioorg Med Chem Lett, 2005):
# pIC50: −log10 of the molar value.
# What was measured:
# [1] = molecular target: T1, Transient receptor potential cation channel subfamily V member 1 (Rattus norvegicus, UniProt O35433); test: In vitro agonistic activity on VR1 receptor in [Ca2+] influx assay in rat dorsal root ganglion (NE: not effective at 30 uM); type: functional, tissue-based
# [2] = molecular target: T1, Transient receptor potential cation channel subfamily V member 1; test: In vitro antagonistic activity on VR1 receptor in [Ca2+] influx assay in rat dorsal root ganglion; type: functional, tissue-based
# T1 sequence (O35433 whole entry): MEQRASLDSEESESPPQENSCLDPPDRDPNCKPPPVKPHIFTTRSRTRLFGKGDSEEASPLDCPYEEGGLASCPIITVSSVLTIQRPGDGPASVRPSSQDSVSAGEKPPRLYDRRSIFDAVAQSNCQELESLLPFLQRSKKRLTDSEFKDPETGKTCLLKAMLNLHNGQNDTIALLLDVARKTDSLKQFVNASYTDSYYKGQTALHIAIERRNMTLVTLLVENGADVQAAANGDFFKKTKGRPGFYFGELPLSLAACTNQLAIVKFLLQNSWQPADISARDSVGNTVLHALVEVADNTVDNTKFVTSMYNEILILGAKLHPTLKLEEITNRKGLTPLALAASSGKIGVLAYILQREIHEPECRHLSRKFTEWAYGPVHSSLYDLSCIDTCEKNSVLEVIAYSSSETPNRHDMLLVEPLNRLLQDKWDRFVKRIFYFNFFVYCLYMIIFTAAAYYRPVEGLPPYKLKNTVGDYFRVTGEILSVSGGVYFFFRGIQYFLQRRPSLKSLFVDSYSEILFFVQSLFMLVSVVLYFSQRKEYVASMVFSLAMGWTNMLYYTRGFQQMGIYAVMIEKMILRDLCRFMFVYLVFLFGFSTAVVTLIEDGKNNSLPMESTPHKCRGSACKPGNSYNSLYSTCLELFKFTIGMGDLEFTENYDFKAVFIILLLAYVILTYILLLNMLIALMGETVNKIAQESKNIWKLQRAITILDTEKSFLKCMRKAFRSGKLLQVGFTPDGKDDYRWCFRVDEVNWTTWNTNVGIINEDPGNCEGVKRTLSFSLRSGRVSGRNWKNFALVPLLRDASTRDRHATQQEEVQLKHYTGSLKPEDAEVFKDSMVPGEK
IC50 [1],pIC50 [2],SMILES
Not Active,7.51,Cc1cccnc1-c1ccc(C(=O)Nc2ccc(C(C)(C)C)cc2)cc1
Not Active,6.85,CC(C)(C)c1ccc(NC(=O)c2ccc(-c3ncccc3C(F)(F)F)cc2)cc1
Not Active,7.22,CC(C)(C)c1ccc(NC(=O)c2ccc(-c3ncccn3)cc2)cc1
Not Active,5.70,Cc1ccc(NC(=O)c2ccc(-c3ccccn3)cc2)cc1C
Not Active,6.00,CC(C)(C)c1ccc(NC(=O)c2ccc(-c3cnccn3)cc2)cc1
Not Active,< 5.00,CN(C(=O)c1ccc(-c2ccccn2)cc1)c1ccc(C(C)(C)C)cc1
Not Active,7.22,CC(C)(C)c1ccc(NC(=O)c2ccc(-c3ncccc3[N+](=O)[O-])cc2)cc1
Not Active,5.10,O=C(Nc1ccc(C(F)(F)F)cc1)c1ccc(-c2ccccn2)cc1
Not Active,7.51,CC(C)(C)c1ccc(NC(=O)c2ccc(-c3ccccn3)cc2)cc1
Not Active,6.82,CC(C)(C)c1ccc(NC(=O)N2CCN(c3ccccn3)CC2)cc1
Not Active,< 5.00,O=C(Nc1ccccc1)c1ccc(-c2ccccn2)cc1
Not Active,7.26,CC(C)(C)c1ccc(NC(=O)c2ccc(-c3ncccc3Cl)cc2)cc1
Not Active,5.64,Cc1ccc(NC(=O)c2ccc(-c3ccccn3)cc2)cc1
Not Active,7.42,CC(C)c1ccc(NC(=O)c2ccc(-c3ccccn3)cc2)cc1
Not Active,5.44,CC(C)(C)c1ccc(NC(=O)c2ccc(-c3ccccc3)cc2)cc1
Not Active,6.55,CC(C)(C)c1ccc(NC(=O)c2ccc(-c3ccncc3)cc2)cc1
Not Active,5.89,CC(C)(C)c1ccc(NC(=O)c2ccc(-c3cccnc3)cc2)cc1
Not Active,< 5.00,CC(C)(C)c1ccc(NC(=O)c2ccc(-c3cncnc3)cc2)cc1
